According to article PMC12881674, “Activation of TRPV3 channels in bladder cancer cells stimulates ATP release” (Molecular Pharmacology, 2025):

Assays:
Format in all cases: cell-based
[1] = biological target: T1, human TRPA1 (Homo sapiens, UniProt O75762); assay: fluo-4 Ca2+ assay selectivity, HEK cells expressing human TRPA1
T1 construct: expressed in transfected cells; host or cells: HEK293
Source text: (§1) KU-19-19 (DSMZ no. ACC 395), CAL-29 (DSMZ no. ACC 515), 647-V (DSMZ no. ACC 414), RT-4 (DSMZ no. ACC 412), and RT-112 (DSMZ no. ACC 418) bladder cancer cell lines were obtained from the Leibniz Institute DSMZ (German Collection of Microorganisms and Cell Cultures). Human TRPV3 (NM_145068, purchased from OriGene) and mouse TRPV3 (NM_001371006), rat TRPV1, mouse TRPV2, mouse TRPV4, human TRPM2, human TRPM8, and human TRPA1 were stably transfected in HEK293 cells as described before.[27] […]
(§2) All fluorometric Ca^2+ assays were performed in HBS buffer at room temperature. […] For the primary compound screening and the generation of concentration-response analyses, a robotic liquid handling station (Freedom Evo 150; Tecan) with a built-in custom-made fluorescence plate imager was used. […] Fluorescence was excited using a 470-nm light-emitting diode, and emitted light was imaged through a 515-nm–long pass filter with a cooled Zyla 5.5 camera (Andor). Fluorescence was recorded and processed under the control of the μ-Manager 2.0 gamma software (https://micro-manager.org.[28]). After recording baseline fluorescence, compounds were dispensed into the wells via the liquid handling device. […] For further analysis, fluorescence signals were calculated for each well, corrected for background intensities and normalized to the initial signals. […]

[2] = biological target: T2, human TRPM8 (Homo sapiens, UniProt Q7Z2W7); assay: fluo-4 Ca2+ assay selectivity, HEK cells expressing human TRPM8; conditions: concentrations up to 50 μM
T2 construct: expressed in transfected cells; host or cells: HEK293
Source text: as §1, §2

[3] = biological target: T3, mouse TRPV2 (Mus musculus, UniProt Q9WTR1); assay: fluo-4 Ca2+ assay selectivity, HEK cells expressing mouse TRPV2; conditions: concentrations up to 50 μM
T3 construct: expressed in transfected cells; host or cells: HEK293
T3 sequence (Q9WTR1 1-756): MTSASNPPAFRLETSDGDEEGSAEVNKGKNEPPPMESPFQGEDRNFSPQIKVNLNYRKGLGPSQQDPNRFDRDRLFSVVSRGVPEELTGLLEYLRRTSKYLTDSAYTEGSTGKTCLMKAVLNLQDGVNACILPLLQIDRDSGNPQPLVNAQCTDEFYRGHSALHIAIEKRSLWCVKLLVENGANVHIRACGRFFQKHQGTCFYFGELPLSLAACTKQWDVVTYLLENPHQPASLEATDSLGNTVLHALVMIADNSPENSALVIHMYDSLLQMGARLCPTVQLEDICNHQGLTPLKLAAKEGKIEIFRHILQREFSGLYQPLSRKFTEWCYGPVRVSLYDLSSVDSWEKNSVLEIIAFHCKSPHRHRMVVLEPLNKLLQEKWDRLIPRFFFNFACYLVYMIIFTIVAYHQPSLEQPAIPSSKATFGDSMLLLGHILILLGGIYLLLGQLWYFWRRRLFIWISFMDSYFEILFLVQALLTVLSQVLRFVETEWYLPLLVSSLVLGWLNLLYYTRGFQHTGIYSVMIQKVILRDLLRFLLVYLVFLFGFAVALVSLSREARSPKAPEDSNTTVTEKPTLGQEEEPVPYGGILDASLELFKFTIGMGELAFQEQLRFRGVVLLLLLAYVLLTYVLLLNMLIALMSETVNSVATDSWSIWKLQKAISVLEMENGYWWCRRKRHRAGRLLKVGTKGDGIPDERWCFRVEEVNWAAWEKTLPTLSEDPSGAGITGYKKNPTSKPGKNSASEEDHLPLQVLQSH
Source text: as §1, §2

T1 sequence (O75762 whole entry): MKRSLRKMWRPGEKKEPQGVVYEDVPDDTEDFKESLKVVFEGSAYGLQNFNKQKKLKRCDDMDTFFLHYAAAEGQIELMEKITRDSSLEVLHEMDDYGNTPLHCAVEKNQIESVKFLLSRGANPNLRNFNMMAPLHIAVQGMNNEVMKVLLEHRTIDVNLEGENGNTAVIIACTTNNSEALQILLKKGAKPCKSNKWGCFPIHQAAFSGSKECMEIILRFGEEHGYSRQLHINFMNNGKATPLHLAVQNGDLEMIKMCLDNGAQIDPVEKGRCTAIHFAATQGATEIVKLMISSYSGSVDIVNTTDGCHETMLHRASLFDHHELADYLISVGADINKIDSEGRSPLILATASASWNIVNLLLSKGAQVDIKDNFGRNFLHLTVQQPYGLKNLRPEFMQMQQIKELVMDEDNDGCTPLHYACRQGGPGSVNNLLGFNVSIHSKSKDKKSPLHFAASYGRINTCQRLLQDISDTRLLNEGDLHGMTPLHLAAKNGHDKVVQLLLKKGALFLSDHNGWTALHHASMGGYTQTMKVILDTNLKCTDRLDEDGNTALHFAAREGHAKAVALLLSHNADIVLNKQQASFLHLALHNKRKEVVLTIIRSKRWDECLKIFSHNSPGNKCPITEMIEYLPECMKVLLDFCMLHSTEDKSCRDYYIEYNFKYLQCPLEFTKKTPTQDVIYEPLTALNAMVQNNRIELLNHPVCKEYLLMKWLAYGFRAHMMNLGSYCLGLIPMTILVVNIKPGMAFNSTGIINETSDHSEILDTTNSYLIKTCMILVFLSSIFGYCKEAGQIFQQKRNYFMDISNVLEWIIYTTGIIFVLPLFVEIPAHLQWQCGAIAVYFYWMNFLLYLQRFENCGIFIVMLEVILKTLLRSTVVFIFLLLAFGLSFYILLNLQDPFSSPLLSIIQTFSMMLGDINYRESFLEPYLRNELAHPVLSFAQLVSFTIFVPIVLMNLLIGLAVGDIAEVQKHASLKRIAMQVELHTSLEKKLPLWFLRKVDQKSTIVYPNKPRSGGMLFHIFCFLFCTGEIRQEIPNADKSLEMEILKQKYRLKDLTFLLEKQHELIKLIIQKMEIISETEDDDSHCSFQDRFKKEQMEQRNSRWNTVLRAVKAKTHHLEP
T2 sequence (Q7Z2W7 whole entry): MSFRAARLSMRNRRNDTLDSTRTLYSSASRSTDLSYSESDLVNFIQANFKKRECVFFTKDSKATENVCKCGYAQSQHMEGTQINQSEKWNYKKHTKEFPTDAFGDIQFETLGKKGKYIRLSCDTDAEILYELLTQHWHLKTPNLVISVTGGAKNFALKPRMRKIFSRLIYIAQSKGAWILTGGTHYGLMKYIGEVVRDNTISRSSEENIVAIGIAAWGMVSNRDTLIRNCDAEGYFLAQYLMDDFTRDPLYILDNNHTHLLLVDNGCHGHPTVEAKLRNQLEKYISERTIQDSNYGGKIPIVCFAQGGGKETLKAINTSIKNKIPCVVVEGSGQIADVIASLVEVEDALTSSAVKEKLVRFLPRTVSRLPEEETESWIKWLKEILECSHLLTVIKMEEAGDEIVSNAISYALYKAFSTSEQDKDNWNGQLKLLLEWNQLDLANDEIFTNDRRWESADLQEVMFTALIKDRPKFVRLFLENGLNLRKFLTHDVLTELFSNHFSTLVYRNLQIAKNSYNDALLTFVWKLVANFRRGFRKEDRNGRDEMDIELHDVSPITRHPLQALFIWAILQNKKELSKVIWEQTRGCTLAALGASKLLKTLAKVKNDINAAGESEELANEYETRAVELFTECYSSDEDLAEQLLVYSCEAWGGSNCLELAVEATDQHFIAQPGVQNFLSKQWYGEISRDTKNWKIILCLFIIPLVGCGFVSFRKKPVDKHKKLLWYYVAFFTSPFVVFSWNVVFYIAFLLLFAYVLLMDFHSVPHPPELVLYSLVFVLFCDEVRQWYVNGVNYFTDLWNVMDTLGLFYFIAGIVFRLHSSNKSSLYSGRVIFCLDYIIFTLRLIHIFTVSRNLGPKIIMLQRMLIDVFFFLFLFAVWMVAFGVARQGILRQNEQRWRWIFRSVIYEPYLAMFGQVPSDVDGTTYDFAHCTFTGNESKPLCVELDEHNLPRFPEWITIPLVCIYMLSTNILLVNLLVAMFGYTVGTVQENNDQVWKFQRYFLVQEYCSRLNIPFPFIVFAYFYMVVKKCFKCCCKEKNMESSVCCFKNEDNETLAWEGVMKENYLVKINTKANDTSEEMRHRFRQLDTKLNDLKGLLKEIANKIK

- effect on TRPA1 [1]: activates
- effect on TRPM8 [2]: no effect
- effect on TRPV2 [3]: no effect
Compound: COC(=O)C12CN(Cc3ccccc3)CC1(C(=O)OC)CN(Cc1ccccc1)C2 (stereo not drawn) [AV3-1]
